Laboratory results reported in ChEMBL document CHEMBL2150974 (J Med Chem, 2012).
Calls of active or inactive are those of the source. The rule behind the calls is not given here.

What was measured:
[1] = target: T1, Mitogen-activated protein kinase 14 (Homo sapiens, UniProt Q16539); assay: Inhibition of p38alpha by immunosorbent based kinase assay
[2] = target: T1, Mitogen-activated protein kinase 14; assay: Inhibition of p38alpha-dependent TNFalpha production in human whole blood
[3] = target: RAC-alpha serine/threonine-protein kinase (Homo sapiens) (UniProt P31749); assay: Inhibition of AKT1 at 10 uM
Chain of RAC-alpha serine/threonine-protein kinase (Homo sapiens) (P31749 whole entry): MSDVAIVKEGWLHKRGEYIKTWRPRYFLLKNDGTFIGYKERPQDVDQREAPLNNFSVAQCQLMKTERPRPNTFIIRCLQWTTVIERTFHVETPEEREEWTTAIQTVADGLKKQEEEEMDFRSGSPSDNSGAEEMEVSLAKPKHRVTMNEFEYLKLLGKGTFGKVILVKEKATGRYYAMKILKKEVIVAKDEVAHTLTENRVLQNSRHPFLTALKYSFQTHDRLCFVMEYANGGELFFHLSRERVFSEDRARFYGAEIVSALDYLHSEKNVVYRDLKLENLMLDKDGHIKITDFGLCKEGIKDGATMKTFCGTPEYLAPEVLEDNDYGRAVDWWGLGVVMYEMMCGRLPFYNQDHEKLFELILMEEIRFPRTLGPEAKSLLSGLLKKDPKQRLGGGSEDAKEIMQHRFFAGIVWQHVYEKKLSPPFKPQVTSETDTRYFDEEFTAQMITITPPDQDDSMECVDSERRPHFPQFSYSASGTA

[4] = target: T2, Serine/threonine-protein kinase PLK4 (Homo sapiens) (UniProt O00444); assay: Inhibition of SAK at 10 uM
T2 sequence (whole entry): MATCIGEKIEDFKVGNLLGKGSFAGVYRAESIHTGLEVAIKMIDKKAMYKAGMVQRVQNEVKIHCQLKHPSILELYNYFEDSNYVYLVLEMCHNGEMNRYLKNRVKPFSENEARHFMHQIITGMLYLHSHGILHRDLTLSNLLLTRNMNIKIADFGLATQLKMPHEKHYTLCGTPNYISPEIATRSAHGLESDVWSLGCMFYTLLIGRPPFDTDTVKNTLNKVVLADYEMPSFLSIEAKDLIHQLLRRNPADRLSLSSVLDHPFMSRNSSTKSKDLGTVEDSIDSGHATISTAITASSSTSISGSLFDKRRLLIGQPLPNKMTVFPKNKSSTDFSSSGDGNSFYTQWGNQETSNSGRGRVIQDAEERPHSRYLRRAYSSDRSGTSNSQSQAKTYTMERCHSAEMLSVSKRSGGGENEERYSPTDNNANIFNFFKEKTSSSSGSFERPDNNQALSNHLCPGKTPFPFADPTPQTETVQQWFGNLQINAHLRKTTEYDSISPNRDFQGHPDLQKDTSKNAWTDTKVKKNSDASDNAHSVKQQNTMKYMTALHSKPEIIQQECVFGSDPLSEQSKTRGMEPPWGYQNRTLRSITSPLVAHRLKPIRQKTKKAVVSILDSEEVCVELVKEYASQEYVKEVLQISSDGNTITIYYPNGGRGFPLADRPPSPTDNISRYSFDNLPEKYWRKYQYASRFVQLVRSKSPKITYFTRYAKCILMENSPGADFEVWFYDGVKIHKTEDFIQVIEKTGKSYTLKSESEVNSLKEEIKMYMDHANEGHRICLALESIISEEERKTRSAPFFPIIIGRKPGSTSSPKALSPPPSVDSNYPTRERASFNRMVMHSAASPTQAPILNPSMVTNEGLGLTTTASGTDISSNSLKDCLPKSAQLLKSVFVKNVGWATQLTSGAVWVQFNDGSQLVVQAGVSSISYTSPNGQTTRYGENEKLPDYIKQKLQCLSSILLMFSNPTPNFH

[5] = target: T3, NUAK family SNF1-like kinase 1 (Homo sapiens) (UniProt O60285); assay: Inhibition of ARK5 at 10 uM
T3 sequence (whole entry): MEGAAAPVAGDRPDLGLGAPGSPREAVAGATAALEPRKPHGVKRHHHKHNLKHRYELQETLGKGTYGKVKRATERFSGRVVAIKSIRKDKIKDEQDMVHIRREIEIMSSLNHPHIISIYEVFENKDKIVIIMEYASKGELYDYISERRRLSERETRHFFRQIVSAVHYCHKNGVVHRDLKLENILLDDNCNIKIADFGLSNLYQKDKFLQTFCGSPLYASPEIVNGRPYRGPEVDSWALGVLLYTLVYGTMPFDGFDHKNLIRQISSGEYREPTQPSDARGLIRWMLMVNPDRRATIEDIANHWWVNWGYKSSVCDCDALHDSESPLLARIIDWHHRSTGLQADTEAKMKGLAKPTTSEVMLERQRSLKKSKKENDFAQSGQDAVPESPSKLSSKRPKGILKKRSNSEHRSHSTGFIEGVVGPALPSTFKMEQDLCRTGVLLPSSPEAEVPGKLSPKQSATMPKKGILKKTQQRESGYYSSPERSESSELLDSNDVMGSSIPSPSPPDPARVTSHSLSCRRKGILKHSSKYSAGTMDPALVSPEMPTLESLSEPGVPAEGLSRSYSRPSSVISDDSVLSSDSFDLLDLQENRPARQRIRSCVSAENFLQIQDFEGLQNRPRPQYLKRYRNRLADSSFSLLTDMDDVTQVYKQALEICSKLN

[6] = target: BDNF/NT-3 growth factors receptor (Homo sapiens) (UniProt Q16620); assay: Inhibition of TRKB at 10 uM
Chain of BDNF/NT-3 growth factors receptor (Homo sapiens) (Q16620 32-822 limits assumed): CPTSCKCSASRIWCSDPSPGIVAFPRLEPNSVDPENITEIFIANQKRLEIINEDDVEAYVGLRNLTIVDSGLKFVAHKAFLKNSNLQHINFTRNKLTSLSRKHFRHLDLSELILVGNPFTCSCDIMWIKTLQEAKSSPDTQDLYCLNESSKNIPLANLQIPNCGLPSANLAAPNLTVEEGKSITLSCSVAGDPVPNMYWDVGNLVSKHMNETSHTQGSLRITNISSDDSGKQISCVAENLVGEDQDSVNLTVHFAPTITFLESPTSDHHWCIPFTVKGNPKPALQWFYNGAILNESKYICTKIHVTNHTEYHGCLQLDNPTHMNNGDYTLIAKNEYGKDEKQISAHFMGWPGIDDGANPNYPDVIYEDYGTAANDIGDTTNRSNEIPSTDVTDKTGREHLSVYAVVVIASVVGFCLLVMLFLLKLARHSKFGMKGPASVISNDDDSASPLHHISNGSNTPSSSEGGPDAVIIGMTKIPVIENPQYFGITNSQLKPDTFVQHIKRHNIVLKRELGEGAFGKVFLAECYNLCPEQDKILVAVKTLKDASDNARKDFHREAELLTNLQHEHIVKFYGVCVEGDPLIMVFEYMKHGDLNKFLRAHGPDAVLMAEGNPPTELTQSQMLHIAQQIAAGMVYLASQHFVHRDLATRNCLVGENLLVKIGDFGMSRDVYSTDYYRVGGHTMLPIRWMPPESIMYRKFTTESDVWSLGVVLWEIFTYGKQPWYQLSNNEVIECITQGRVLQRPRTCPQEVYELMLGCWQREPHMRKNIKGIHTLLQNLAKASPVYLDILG

[7] = target: Aurora kinase B (Homo sapiens) (UniProt Q96GD4); assay: Inhibition of AuroraB at 10 uM
Chain of Aurora kinase B (Homo sapiens) (Q96GD4 whole entry): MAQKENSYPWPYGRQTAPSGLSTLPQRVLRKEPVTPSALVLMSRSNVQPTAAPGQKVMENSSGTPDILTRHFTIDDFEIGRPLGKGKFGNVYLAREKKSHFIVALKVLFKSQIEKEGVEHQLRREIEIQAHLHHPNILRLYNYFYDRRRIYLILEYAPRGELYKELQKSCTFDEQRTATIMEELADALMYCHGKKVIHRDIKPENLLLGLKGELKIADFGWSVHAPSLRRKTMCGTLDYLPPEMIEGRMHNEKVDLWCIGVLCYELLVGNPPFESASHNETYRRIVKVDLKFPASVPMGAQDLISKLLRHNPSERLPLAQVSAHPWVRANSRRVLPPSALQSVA

[8] = target: Proto-oncogene tyrosine-protein kinase Src (Homo sapiens) (UniProt P12931); assay: Inhibition of SRC at 10 uM
Chain of Proto-oncogene tyrosine-protein kinase Src (Homo sapiens) (P12931 2-536 limits assumed): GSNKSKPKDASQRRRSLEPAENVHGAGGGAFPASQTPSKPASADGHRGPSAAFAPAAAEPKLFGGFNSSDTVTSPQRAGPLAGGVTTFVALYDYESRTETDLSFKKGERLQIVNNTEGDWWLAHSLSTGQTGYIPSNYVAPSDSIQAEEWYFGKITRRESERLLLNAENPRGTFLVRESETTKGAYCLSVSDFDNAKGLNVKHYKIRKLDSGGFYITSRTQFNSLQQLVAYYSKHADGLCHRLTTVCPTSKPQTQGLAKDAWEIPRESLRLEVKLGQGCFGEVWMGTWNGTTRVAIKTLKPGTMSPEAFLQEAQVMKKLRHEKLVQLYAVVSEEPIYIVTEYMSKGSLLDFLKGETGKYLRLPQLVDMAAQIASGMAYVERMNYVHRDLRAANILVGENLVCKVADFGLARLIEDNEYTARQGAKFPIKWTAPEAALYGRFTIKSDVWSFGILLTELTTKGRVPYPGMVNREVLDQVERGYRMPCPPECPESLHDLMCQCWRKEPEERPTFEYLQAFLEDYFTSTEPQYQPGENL

[9] = test system: Serine/threonine-protein kinase B-raf (Homo sapiens), P15056 [V600E]; assay: Inhibition of BRAF V600E mutant at 10 uM
[10] = target: Vascular endothelial growth factor receptor 2 (Homo sapiens) (UniProt P35968); assay: Inhibition of VEGFR2 at 10 uM
[11] = target: Insulin receptor (Homo sapiens) (UniProt P06213); assay: Inhibition of INSR at 10 uM
[12] = target: Insulin-like growth factor 1 receptor (Homo sapiens) (UniProt P08069); assay: Inhibition of IGF1R at 10 uM
[13] = target: Hepatocyte growth factor receptor (Homo sapiens) (UniProt P08581); assay: Inhibition of MET at 10 uM
Chain of Hepatocyte growth factor receptor (Homo sapiens) (P08581 whole entry): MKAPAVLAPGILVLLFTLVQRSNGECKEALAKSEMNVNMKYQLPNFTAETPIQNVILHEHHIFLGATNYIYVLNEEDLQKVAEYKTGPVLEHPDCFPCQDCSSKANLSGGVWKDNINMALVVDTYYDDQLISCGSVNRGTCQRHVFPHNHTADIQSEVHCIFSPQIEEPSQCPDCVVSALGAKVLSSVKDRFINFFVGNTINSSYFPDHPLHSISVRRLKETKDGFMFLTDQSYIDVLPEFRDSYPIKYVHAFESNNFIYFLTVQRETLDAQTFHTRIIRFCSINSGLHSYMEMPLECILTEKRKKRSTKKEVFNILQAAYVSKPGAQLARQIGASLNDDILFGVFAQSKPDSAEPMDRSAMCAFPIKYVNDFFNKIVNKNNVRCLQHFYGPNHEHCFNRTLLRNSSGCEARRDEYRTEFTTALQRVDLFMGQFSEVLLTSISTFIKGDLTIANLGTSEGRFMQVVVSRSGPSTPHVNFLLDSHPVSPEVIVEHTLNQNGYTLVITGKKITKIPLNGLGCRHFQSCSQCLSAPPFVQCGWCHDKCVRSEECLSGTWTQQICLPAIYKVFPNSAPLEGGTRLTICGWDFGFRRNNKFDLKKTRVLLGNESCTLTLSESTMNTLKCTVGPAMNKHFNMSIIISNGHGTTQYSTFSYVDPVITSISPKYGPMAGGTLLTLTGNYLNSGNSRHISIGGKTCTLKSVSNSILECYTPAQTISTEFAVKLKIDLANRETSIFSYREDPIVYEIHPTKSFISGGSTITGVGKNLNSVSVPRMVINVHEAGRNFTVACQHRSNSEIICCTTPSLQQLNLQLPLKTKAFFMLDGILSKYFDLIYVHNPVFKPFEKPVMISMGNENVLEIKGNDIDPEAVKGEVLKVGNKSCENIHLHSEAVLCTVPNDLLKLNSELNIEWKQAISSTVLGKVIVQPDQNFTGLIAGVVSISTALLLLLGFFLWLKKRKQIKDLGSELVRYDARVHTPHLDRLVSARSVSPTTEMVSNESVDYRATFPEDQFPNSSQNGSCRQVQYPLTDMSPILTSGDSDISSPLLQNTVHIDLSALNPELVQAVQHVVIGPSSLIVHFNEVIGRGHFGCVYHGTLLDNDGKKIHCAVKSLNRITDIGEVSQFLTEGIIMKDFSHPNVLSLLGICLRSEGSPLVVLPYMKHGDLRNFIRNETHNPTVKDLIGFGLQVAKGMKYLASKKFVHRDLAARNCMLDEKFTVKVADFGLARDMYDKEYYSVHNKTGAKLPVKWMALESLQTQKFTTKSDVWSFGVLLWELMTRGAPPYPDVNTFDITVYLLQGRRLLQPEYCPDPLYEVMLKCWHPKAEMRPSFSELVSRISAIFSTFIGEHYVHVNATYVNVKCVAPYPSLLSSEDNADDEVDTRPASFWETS

[14] = target: Focal adhesion kinase 1 (Homo sapiens) (UniProt Q05397); assay: Inhibition of FAK at 10 uM
Chain of Focal adhesion kinase 1 (Homo sapiens) (Q05397 2-1052 limits assumed): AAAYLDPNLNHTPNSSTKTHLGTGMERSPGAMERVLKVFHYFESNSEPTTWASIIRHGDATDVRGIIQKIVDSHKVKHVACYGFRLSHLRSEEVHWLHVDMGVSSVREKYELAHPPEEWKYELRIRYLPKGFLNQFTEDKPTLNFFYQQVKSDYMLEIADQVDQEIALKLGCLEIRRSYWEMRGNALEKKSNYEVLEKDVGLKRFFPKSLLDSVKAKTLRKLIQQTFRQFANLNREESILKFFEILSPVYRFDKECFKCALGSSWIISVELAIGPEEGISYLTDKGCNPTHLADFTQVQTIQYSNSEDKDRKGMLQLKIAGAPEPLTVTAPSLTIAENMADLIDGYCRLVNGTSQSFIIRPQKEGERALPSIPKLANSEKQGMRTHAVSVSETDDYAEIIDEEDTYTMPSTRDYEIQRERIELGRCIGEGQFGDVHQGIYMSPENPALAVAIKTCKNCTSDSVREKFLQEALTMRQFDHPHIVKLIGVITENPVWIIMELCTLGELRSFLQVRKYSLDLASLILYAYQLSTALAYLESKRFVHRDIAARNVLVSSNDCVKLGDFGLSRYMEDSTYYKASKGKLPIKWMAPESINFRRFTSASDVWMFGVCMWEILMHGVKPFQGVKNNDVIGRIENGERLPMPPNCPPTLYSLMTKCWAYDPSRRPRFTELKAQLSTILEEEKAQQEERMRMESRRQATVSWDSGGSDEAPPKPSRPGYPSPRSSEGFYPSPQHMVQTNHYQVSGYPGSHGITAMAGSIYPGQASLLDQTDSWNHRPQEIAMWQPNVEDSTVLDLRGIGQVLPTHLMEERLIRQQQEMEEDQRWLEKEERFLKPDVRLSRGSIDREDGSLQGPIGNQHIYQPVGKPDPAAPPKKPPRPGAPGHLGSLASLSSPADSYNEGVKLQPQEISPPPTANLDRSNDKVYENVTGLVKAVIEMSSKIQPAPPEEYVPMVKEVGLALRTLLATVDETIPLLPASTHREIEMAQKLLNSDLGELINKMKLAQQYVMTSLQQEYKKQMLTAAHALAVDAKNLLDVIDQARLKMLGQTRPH

[15] = target: Serine/threonine-protein kinase PLK1 (Homo sapiens) (UniProt P53350); assay: Inhibition of PLK1 at 10 uM
[16] = target: Tyrosine-protein kinase receptor UFO (Homo sapiens) (UniProt P30530); assay: Inhibition of AXL at 10 uM
[17] = target: Serine/threonine-protein kinase N1 (Homo sapiens) (UniProt Q16512); assay: Inhibition of PRK1 at 10 uM
[18] = target: Casein kinase II subunit alpha (Homo sapiens) (UniProt P68400); assay: Inhibition of CK2alpha1 at 10 uM

T1 sequence (Q16539 whole entry): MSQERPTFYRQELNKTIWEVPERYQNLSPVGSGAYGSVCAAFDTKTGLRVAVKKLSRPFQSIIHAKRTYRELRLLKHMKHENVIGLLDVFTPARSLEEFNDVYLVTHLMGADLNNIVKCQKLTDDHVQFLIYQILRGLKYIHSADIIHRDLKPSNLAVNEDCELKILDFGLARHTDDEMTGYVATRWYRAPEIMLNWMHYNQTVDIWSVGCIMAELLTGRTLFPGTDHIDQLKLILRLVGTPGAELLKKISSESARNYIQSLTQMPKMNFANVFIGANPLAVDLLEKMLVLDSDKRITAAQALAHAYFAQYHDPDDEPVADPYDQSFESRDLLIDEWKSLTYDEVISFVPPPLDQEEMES

O=C1c2ccc(Nc3ccc(F)cc3F)cc2CCc2c(O)cccc21
IC50 [1]: 20 nM
IC50 [2]: 37300 nM
inhibition [3]: inactive
inhibition [4]: inactive
inhibition [5]: inactive
inhibition [6]: inactive
inhibition [7]: inactive
inhibition [8]: inactive
inhibition [9]: inactive
inhibition [10]: inactive
inhibition [11]: inactive
inhibition [12]: inactive
inhibition [13]: inactive
inhibition [14]: inactive
inhibition [15]: inactive
inhibition [16]: inactive
inhibition [17]: inactive
inhibition [18]: inactive

COc1cccc2c1CCc1cc(Nc3ccccc3N)ccc1C2=O
IC50 [1]: 80 nM
IC50 [2]: 52100 nM
inhibition [3]: inactive
inhibition [4]: inactive
inhibition [5]: inactive
inhibition [6]: inactive
inhibition [7]: inactive
inhibition [8]: inactive
inhibition [9]: inactive
inhibition [10]: inactive
inhibition [11]: inactive
inhibition [12]: inactive
inhibition [13]: inactive
inhibition [14]: inactive
inhibition [15]: inactive
inhibition [16]: inactive
inhibition [17]: inactive
inhibition [18]: inactive

O=C1c2ccc(Nc3ccc(F)cc3F)cc2CCc2ccc(OCCO)cc21
IC50 [1]: 10 nM
IC50 [2]: 480 nM
inhibition [3]: inactive
inhibition [4]: inactive
inhibition [5]: inactive
inhibition [6]: inactive
inhibition [7]: inactive
inhibition [8]: inactive
inhibition [9]: inactive
inhibition [10]: inactive
inhibition [11]: inactive
inhibition [12]: inactive
inhibition [13]: inactive
inhibition [14]: inactive
inhibition [15]: inactive
inhibition [16]: inactive
inhibition [17]: inactive
inhibition [18]: inactive

COc1ccc2c(c1)C(=O)c1ccc(Nc3ccccc3Cl)cc1CC2
IC50 [1]: 560 nM
IC50 [2]: 4600 nM
inhibition [3]: inactive
inhibition [4]: inactive
inhibition [5]: inactive
inhibition [6]: inactive
inhibition [7]: inactive
inhibition [8]: inactive
inhibition [9]: inactive
inhibition [10]: inactive
inhibition [11]: inactive
inhibition [12]: inactive
inhibition [13]: inactive
inhibition [14]: inactive
inhibition [15]: inactive
inhibition [16]: inactive
inhibition [17]: inactive
inhibition [18]: inactive

Nc1ccccc1Nc1ccc2c(c1)CCc1c(OC[C@H](O)CO)cccc1C2=O
IC50 [1]: 40 nM
IC50 [2]: 78800 nM
inhibition [3]: inactive
inhibition [4]: inactive
inhibition [5]: inactive
inhibition [6]: inactive
inhibition [7]: inactive
inhibition [8]: inactive
inhibition [9]: inactive
inhibition [10]: inactive
inhibition [11]: inactive
inhibition [12]: inactive
inhibition [13]: inactive
inhibition [14]: inactive
inhibition [15]: inactive
inhibition [16]: inactive
inhibition [17]: inactive
inhibition [18]: inactive

CC1(C)OC[C@@H](COc2ccc3c(c2)CCc2cc(Nc4ccc(F)cc4F)ccc2C3=O)O1
IC50 [1]: 360 nM
IC50 [2]: 123000 nM
inhibition [3]: inactive
inhibition [4]: inactive
inhibition [5]: inactive
inhibition [6]: inactive
inhibition [7]: inactive
inhibition [8]: inactive
inhibition [9]: inactive
inhibition [10]: inactive
inhibition [11]: inactive
inhibition [12]: inactive
inhibition [13]: inactive
inhibition [14]: inactive
inhibition [15]: inactive
inhibition [16]: inactive
inhibition [17]: inactive
inhibition [18]: inactive

O=C1c2ccc(Nc3ccc(F)cc3F)cc2CCc2cc(OC[C@@H](O)CO)ccc21
IC50 [1]: 5 nM
IC50 [2]: 5200 nM
inhibition [3]: inactive
inhibition [4]: inactive
inhibition [5]: inactive
inhibition [6]: inactive
inhibition [7]: inactive
inhibition [8]: inactive
inhibition [9]: inactive
inhibition [10]: inactive
inhibition [11]: inactive
inhibition [12]: inactive
inhibition [13]: inactive
inhibition [14]: inactive
inhibition [15]: inactive
inhibition [16]: inactive
inhibition [17]: inactive
inhibition [18]: inactive

COc1ccc2c(c1)C(=O)c1ccc(Nc3ccccc3C(F)(F)F)cc1CC2
IC50 [1]: 400 nM
IC50 [2]: 33600 nM
inhibition [3]: inactive
inhibition [4]: inactive
inhibition [5]: inactive
inhibition [6]: inactive
inhibition [7]: inactive
inhibition [8]: inactive
inhibition [9]: inactive
inhibition [10]: inactive
inhibition [11]: inactive
inhibition [12]: inactive
inhibition [13]: inactive
inhibition [14]: inactive
inhibition [15]: inactive
inhibition [16]: inactive
inhibition [17]: inactive
inhibition [18]: inactive

O=C1c2ccc(Nc3ccc(F)cc3F)cc2CCc2ccc(OC3CCOCC3)cc21
IC50 [1]: 60 nM
IC50 [2]: 530 nM
inhibition [3]: inactive
inhibition [4]: inactive
inhibition [5]: inactive
inhibition [6]: inactive
inhibition [7]: inactive
inhibition [8]: inactive
inhibition [9]: inactive
inhibition [10]: inactive
inhibition [11]: inactive
inhibition [12]: inactive
inhibition [13]: inactive
inhibition [14]: inactive
inhibition [15]: inactive
inhibition [16]: inactive
inhibition [17]: inactive
inhibition [18]: inactive
